Experimental data from patent US20260258050A1, “IMMUNOMODULATOR” (HITGEN INC., priority 2023, published 2026).

Assays:
Human IL-17A [1] = molecular target: T1, Human IL-17A (Homo sapiens, UniProt Q16552); experiment: IL-17A enzyme-linked immunosorbent assay (competitive ELISA, IL-17A/IL-17Ra receptor-ligand binding); design: purchased Sino Biological Inc. 12047-H07B; conditions: human IL-17A coated plate, human IL-17Ra, read-out: IC50, inhibitory activity of compounds on human IL-17A
T1 sequence (Q16552 20-155 limits assumed): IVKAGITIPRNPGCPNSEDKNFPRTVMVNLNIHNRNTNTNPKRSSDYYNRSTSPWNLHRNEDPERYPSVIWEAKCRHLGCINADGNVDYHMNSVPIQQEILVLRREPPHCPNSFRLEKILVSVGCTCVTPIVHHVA
How it was run: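 Competitive ELISA with plates coated with human IL-17A at 0.2 μg/ml, blocked with 5% skim milk. Compound pre-incubated with IL-17A 10 min at 25 °C, then 16 nM IL-17Ra stock added for 30 min. Bound receptor detected by anti-Fc HRP/TMB, A450. IC50 from variable-slope fit of blank-corrected residual activity.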

Human IL-17AF = molecular target: T2, Human IL-17AF (Homo sapiens, UniProt Q16552+Q96PD4); experiment: IL-17AF ELISA (competitive ELISA, IL-17AF/IL-17Ra receptor-ligand binding); conditions: human IL-17AF coated plate, human IL-17Ra, read-out: IC50, inhibitory activity of compounds on human IL-17AF
T2 construct: purchased Sino Biological Inc. CT047-H08H
T2 sequence (Q16552 24-155): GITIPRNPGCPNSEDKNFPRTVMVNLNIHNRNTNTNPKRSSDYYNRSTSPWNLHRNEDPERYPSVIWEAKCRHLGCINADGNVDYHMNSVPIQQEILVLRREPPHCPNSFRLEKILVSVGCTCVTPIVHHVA
T2 sequence (Q96PD4 31-163): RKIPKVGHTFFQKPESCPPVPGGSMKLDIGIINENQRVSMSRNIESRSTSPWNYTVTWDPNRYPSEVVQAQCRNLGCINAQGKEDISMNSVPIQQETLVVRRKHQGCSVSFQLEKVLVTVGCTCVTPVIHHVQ
Method: Experiment Example 2 IL-17AF ELISA
The inhibitory effects of human IL-17AF inhibitors on receptor-ligand binding were quantitatively determined by a competitive ELISA.
The ELISA was performed through the following steps.
Human IL-17AF (Sino Biological Inc., Cat #CT047-H08H) was diluted with coating buffer (50 mM PBS, pH 7.4) to reach a concentration of 0.625 μg/ml. 100 μL of the resulting solution was added to each well of a 96-well plate, and the plate was incubated at 37° C. for 30 min. In the blank group, 100 μL of coating buffer was added instead of the IL-17AF solution.
The plate was washed four times with 10 mM PBST (pH 7.4). 200 μL was used per well for each wash. After the final wash, the plate was tapped dry on absorbent paper.
Fresh 5% (w/v) skim milk solution was prepared before the experiment. For example, 5 grams of skim milk powder (Bio-Rad, Cat #170-6404) was completely dissolved in 100 mL of 10 mM PBST. 200 μL of the 5% (w/v) skim milk solution was added to each well, and the plate was incubated on a shaker at 25° C. for 30 min.
(S4) Preparation of 100× to-be-Tested Compound Solutions
During step (S3), the to-be-tested compound solutions were prepared. Each powdered compound was dissolved in dimethyl sulfoxide (DMSO) to reach a stock concentration of 10 mM. The to-be-tested compound solutions were then serially diluted four-fold with DMSO to obtain nine concentrations ranging from […].
(S6) Pre-Incubation of IL-17AF with to-be-Tested Compound Solutions
89 μL of PBST and 1 μL of each of the to-be-tested compound solutions were added to each well and mixed. The plate was pre-incubated at 25° C. for 10 min. In the blank group and the control group, 1 μL of DMSO was added instead of the to-be-tested compound solutions.
(S7) Incubation with Human IL-17Ra
10 μL of 100 nM IL-17Ra (Sino Biological Inc., Cat #10895-H03H) was added to each well, followed by incubation on a shaker at 25° C. for 30 min. The receptor solution was prepared in 10 mM PBST.
(S9) Incubation with Horseradish Peroxidase-Conjugated Antibody
100 μL of mouse anti-Fc tag HRP-conjugated antibody (Sino Biological Inc., Cat #10702-MM01T-H) was added to each well. The plate was incubated on a shaker at 25° C. for 30 min. The antibody was diluted with 5% (w/v) skim milk solution at 1:5,000 (v/v).
100 μL of TMB substrate solution (BD, Cat #555214) was added to each well. Substrate A and substrate B were freshly mixed at a volume ratio of 1:1 before use. The plate was incubated in the dark at 25° C. for 5-15 min.
(S12) Termination and Detection
The color reaction was terminated by addition of 2.5 M HCl. Absorbance was measured at 450 nm using a BMG PHERStar microplate reader.
(S13) Calculation of Half-Maximal Inhibitory Concentration (IC50)
The relative percent residual activity at each compound concentration was calculated according to Equation 1. The IC50 value of each test compound was then calculated in GraphPad 6 using the equation for log(inhibitor) versus normalized response with variable slope, as shown in Equation 2.
relative percent residual activity (%)=[(absorbance of sample−absorbance of blank group)/(absorbance of control group−absorbance of blank group)]%. Equation 1: […]
The compounds prepared in the Examples were tested for IL-17AF inhibitory activity according to the above method.

Human IL-17A [2] = molecular target: T1, Human IL-17A; experiment: Inhibition of human IL-17A protein-induced GROα/CXCL1 production in HT-29 cells; format: cell-based; design: purchased R&D 317-ILB; host or cells: added exogenously to HT-29 cells; conditions: 30 ng/mL human IL-17A protein, 48 h, GROα in supernatant by ELISA kit, read-out: Inhibitory IC50 of compounds on HT-29 cell GROα/CXCL1
Method: Experiment Example 3 Inhibition of Human IL-17A Protein-Induced GROα/CXCL1 Production in HT-29 Cells by Compounds
This assay was conducted to evaluate the ability of the compounds to inhibit human IL-17A protein-induced production of the chemokine growth-regulated oncogene alpha/C-X-C motif chemokine ligand 1 (GROα/CXCL1) in HT-29 cells.
Human colorectal adenocarcinoma epithelial HT-29 cells (Chengdu Zhongyuan Gongchuang Technology Co., Ltd.) were seeded into a 96-well plate at a density of 5×10^4 cells per well and were cultured overnight in an incubator at 37° C.
30 ng/mL of human IL-17A protein (R&D, #317-ILB) was mixed with gradient concentrations of the IL-17A small-molecule inhibitor, or with […] of a positive control IL-17A antibody (R&D, #AF-317-NA). These mixtures were incubated at 37° C. for 1 h and were then added to the plate. The mixtures were co-incubated with the HT-29 cells at 37° C. for 48 h. Thereafter, the level of GROα in the cell culture supernatant was determined using a GROα ELISA kit (Cisbio, #62HCXC1PEG).
The inhibitory activity of each compound was expressed as the half-maximal inhibitory concentration (IC50) for inhibition of GROα/CXCL1 production in HT-29 cells.

Cc1[nH]nc2c1-c1ccc(NC(=O)[C@@H](NC(=O)c3ccnn3C(C)C)C(C3CC3)C3CC3)cc1CN(C)CC2 [compound 24]
IC50 (Human IL-17A [1]): 50 to 150 nM
IC50 (Human IL-17AF): 100 to 500 nM

CCn1nccc1C(=O)N[C@H](C(=O)Nc1ccc2c(c1)CN(C)CCc1n[nH]c(C)c1-2)C(C1CC1)C1CC1 [compound 25]
IC50 (Human IL-17A [1]): 50 to 150 nM
IC50 (Human IL-17AF): 100 to 500 nM

Cc1[nH]nc2c1-c1cc(F)c(NC(=O)[C@@H](NC(=O)c3ccnn3CC(C)(C)F)C(C3CC3)C3CC3)cc1COCC2 [compound 82]
IC50 (Human IL-17A [1]): 50 to 150 nM
IC50 (Human IL-17AF): 100 to 500 nM

CCn1nccc1C(=O)N[C@H](C(=O)Nc1cc2c(cc1F)-c1c(n[nH]c1C)CC(C)OC2)C(C1CC1)C1CC1 (single isomer, unassigned) [compound 119a]
IC50 (Human IL-17A [1]): ≤ 50 nM
IC50 (Human IL-17AF): 100 to 500 nM

Cc1[nH]nc2c1-c1ccc(NC(=O)[C@@H](NC(=O)c3ccnn3C)C(C3CC3)C3CC3)cc1CN(C)CC2 [compound 26]
IC50 (Human IL-17A [1]): 50 to 150 nM
IC50 (Human IL-17AF): 100 to 500 nM

Cc1[nH]nc2c1-c1cc(F)c(NC(=O)[C@@H](NC(=O)c3conc3C(C)C)C(C3CC3)C3CC3)cc1COCC2 [compound 35]
IC50 (Human IL-17A [1]): ≤ 50 nM
IC50 (Human IL-17AF): 100 to 500 nM

Cc1[nH]nc2c1-c1cc(F)c(NC(=O)[C@@H](NC(=O)c3ccc(C#N)n3C)C(C3CC3)C3CC3)cc1COCC2 [compound 227]
IC50 (Human IL-17A [1]): ≤ 50 nM
IC50 (Human IL-17AF): 100 to 500 nM

Cc1[nH]nc2c1-c1cnc(NC(=O)[C@@H](NC(=O)c3ccnn3C(C)C)C(C3CC3)C3CC3)cc1CN(Cc1ccccc1)CC2 [compound 184]
IC50 (Human IL-17AF): 100 to 500 nM

Cc1[nH]nc2c1-c1cc(F)c(NC(=O)[C@@H](NC(=O)c3ccnn3C3CC3)C(C3CC3)C3CC3)cc1COCC2 [compound 19]
IC50 (Human IL-17A [1]): ≤ 50 nM
IC50 (Human IL-17AF): 100 to 500 nM

CCC(C)n1nccc1C(=O)N[C@H](C(=O)Nc1cc2c(cc1F)-c1c(n[nH]c1C)CCOC2)C(C1CC1)C1CC1 (single isomer, unassigned) [compound 123b]
IC50 (Human IL-17A [1]): ≤ 50 nM
IC50 (Human IL-17A [2]): 100 to 500 nM

Cc1[nH]nc2c1-c1cc(F)c(NC(=O)[C@@H](NC(=O)c3ccnn3C(C)C)C(C3CC3)C3CC3)cc1CCCC2 [compound 130]
IC50 (Human IL-17A [1]): ≤ 50 nM
IC50 (Human IL-17A [2]): 100 to 500 nM

Cc1[nH]nc2c1-c1cc(F)c(NC(=O)[C@@H](NC(=O)c3ccnn3CCCF)C(C3CC3)C3CC3)cc1CN(CC(F)F)C(=O)C2 [compound 172]
IC50 (Human IL-17A [1]): ≤ 50 nM
IC50 (Human IL-17A [2]): ≤ 100 nM

COCCN1Cc2cc(NC(=O)[C@@H](NC(=O)c3ccnn3C3CC3)C(C3CC3)C3CC3)c(F)cc2-c2c(n[nH]c2C)CC1=O [compound 139]
IC50 (Human IL-17AF): 100 to 500 nM

Cc1[nH]nc2c1-c1cc(F)c(NC(=O)[C@@H](NC(=O)c3ccnn3C(C)C)C(C3CC3)C3CC3)cc1CN(C1CCC(F)(F)CC1)CC2 [compound 175]
IC50 (Human IL-17A [1]): ≤ 50 nM
IC50 (Human IL-17A [2]): ≤ 100 nM

CC(C)=C(F)C(=O)N[C@H](C(=O)Nc1cc2c(cn1)-c1c(n[nH]c1C)CCOC2)C(C1CC1)C1CC1 [compound 244]
IC50 (Human IL-17A [1]): ≤ 50 nM
IC50 (Human IL-17A [2]): ≤ 100 nM

Cc1[nH]nc2c1-c1cc(F)c(NC(=O)[C@@H](NC(=O)c3ccnn3C(C)C)C(C3CC3)C3CC3)cc1CN(Cc1ccccc1)CC2 [compound 185]
IC50 (Human IL-17AF): 100 to 500 nM

CCC1Cc2n[nH]c(C)c2-c2cc(F)c(NC(=O)[C@@H](NC(=O)c3ccnn3C(C)C)C(C3CC3)C3CC3)cc2CO1 (single isomer, unassigned) [compound 120a]
IC50 (Human IL-17A [1]): 50 to 150 nM
IC50 (Human IL-17A [2]): 100 to 500 nM

Cc1[nH]nc2c1-c1cnc(NC(=O)[C@@H](NC(=O)c3ccnn3C(C)C)C(C3CC3)C3CC3)cc1CN(C1CCC1)C(=O)C2 [compound 197]
IC50 (Human IL-17A [1]): ≤ 50 nM
IC50 (Human IL-17A [2]): ≤ 100 nM

CCn1nccc1C(=O)N[C@H](C(=O)Nc1cc2c(cc1F)-c1c(n[nH]c1C)CCOC2)C1CCCCC1 [compound 49]
IC50 (Human IL-17A [1]): ≤ 50 nM
IC50 (Human IL-17A [2]): 100 to 500 nM

C=C(F)C(=O)N[C@H](C(=O)Nc1cc2c(cn1)-c1c(n[nH]c1C)CCOC2)C(C1CC1)C1CC1 [compound 245]
IC50 (Human IL-17A [1]): ≤ 50 nM
IC50 (Human IL-17A [2]): ≤ 100 nM

Cc1[nH]nc2c1-c1cc(F)c(NC(=O)[C@@H](NC(=O)c3ccnn3CC3CC(F)(F)C3)C(C3CC3)C3CC3)cc1COCC2 [compound 64]
IC50 (Human IL-17A [1]): ≤ 50 nM
IC50 (Human IL-17A [2]): 100 to 500 nM

CCC(C)n1nccc1C(=O)N[C@H](C(=O)Nc1cc2c(cc1F)-c1c(n[nH]c1C)CCOC2)C(C1CC1)C1CC1 (single isomer, unassigned) [compound 123a]
IC50 (Human IL-17A [1]): ≤ 50 nM
IC50 (Human IL-17A [2]): 100 to 500 nM

Cc1[nH]nc2c1-c1cc(F)c(NC(=O)[C@@H](NC(=O)c3ccnn3CCCN3CCOCC3)C(C3CC3)C3CC3)cc1COCC2 [compound 92]
IC50 (Human IL-17A [1]): ≤ 50 nM
IC50 (Human IL-17A [2]): ≤ 100 nM

Cc1[nH]nc2c1-c1cc(F)c(NC(=O)[C@@H](NC(=O)c3ccnn3C(C)C)C(C3CC3)C3CC3)cc1CN(CC(F)F)C(C)C2 (mixture of isomers) [compound 178]
IC50 (Human IL-17A [1]): ≤ 50 nM
IC50 (Human IL-17A [2]): ≤ 100 nM
